Target: Protein-S-isoprenylcysteine O-methyltransferase (Homo sapiens, UniProt O60725)
Test: Inhibition of recombinant human ICMT expressed in baculovirus infected Sf9 insect cells using SAM as substrate preincubated for 30 mins followed by substrate addition and measured after 90 mins by MTase-Glo assay

Protein-S-isoprenylcysteine O-methyltransferase, sequence (O60725 whole entry): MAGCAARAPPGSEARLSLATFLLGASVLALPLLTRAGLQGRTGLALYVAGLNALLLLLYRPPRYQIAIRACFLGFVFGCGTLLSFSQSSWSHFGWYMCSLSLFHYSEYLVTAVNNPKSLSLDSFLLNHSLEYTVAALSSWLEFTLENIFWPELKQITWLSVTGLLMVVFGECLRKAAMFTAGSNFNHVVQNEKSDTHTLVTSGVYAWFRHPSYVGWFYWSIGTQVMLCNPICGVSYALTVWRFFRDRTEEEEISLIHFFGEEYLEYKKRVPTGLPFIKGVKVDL

IC50 [nM] | SMILES
1.6 | Cc1cc(C#N)ccc1O[C@@H](C)COc1cccc(-c2ccnn2C)c1
0.08 | COc1cc(C#N)ccc1O[C@@H](C)COc1cccc(-n2ccnc2C)c1
